Literature values as cited in US5138036A, “Isolation and structural elucidation of the cytostatic cyclodepsipeptide dolastatin 14” (Arizona Board of Regents acting on behalf of Arizona State …, priority 1989, dated 1992).

Key:
[1] = system: B16 melanoma; details: 1.44-11.1 μg/kg
[2] = system: human melanoma xenograph; details: 3.25-26 μg/kg
[3] = system: P388 lymphocytic leukemia (PS system); details: 1-4 μg/kg

What does the source list for `CC[C@H](C)[C@@H]([C@@H](CC(=O)N1CCC[C@H]1[C@H](OC)[C@@H](C)C(=O)N[C@@H](Cc1ccccc1)c1nccs1)OC)N(C)C(=O)[C@@H](NC(=O)[C@H](C(C)C)N(C)C)C(C)C` [dolastatin 10]?
life extension [1]: 42-138%; curative response [2]: 17-67%; life extension [3]: 69-102%
